In patent publication US5405861A, “Triazole compounds and antifungal compositions thereof” (Takeda Chemical Industries, Co., Ltd., priority 1989, dated 1995) one finds ED50, zone of inhibition and Inhibition zone diameter data, which are given here for 47 molecules.

One test relates to Candida albicans. The test can be described thus: Infection-preventing effect in experimental infection in mice, Method 1 (Table 7-1). The format is in vivo, Crj:CDF1 mice. As to conditions: Candida albicans, 168 h, given 0 and 2 hours after infection, survival 7 days after infection, total dose, read-out: ED50. The method, then: Method 1 (Table 7-1): To 5-week-old Crj:CDF1 mice the minimum lethal dose of Candida albicans was inoculated intravenously. The test drug was given twice 0 and 2 hours after infection. The effectiveness of the drug was expressed in ED50 values calculated by the Reed and Muench method from the survival rate 7 days after infection. The ED50 values were calculated based on the total dose given on the two occasions.

The test system of test [1] is Candida albicans (IFO 0538). Description: Antifungal activity against Candida albicans, paper disc growth inhibition zone (Tables 5 and 6). The class given is cell-based. As to conditions: 28° C., 2 days incubation; for zone of inhibition at 1000 µg/mL: 48 h, read-out: Inhibition zone diameter. Here is the method: The antifungal activities of the compounds (I) were evaluated by the following method: a sheet of filter paper disc (manufactured by Toyo Seisakusho, 8 mm in diameter) soaked in a 1000 μg/ml solution of a compound (I) in methanol was placed on an agar plate, which was incubated at 28° C. for 2 days, and the diameter of the growth inhibition zone around the filter paper disc was measured. The following culture media were used:
A: yeast nitrogen base agar medium
B: yeast nitrogen base agar medium (pH 7.0)

The mark [2] stands for this setting: pH 7, B medium (yeast nitrogen base agar, pH 7.0).
[3] abbreviates: A medium (yeast nitrogen base agar).

The structures appear in SMILES notation. Structures can show the parent of a compound that is named as a salt. Where two headings read alike, the source gives them in different places.

As for `C[C@@H](SCc1nccn1CC(F)F)[C@](O)(Cn1cncn1)c1ccc(F)cc1F` (relative stereo) [Compound 54], the ED50 in the test with Candida albicans (sc, s.c.) turned out to be 0.5 mg/kg. Further, the zone of inhibition at 1000 µg/mL in test [1] (setting [2]) stood at 25 mm.
In the case of `CCn1ccnc1CS[C@H](C)[C@](O)(Cn1cncn1)c1ccc(F)cc1F` (relative stereo) [Compound 46], the ED50 in the test on Candida albicans (sc, s.c.) is 0.7 mg/kg. Further, the zone of inhibition at 1000 µg/mL in test [1] (setting [2]) was found to be 27 mm.
The matching figures for `Cc1ncc(CS[C@H](C)[C@](O)(Cn2cncn2)c2ccc(F)cc2F)s1` (relative stereo) [Compound 53]: 2 mg/kg and 35 mm.
Turning to `C[C@@H](SCc1ncc2cnccn12)[C@](O)(Cn1cncn1)c1ccc(F)cc1F` (relative stereo) [Compound 57, (2RS,3RS)-2-(2,4-difluorophenyl)-3-(imidazo[1,5-a]pyradin-3-yl)methylthio-1-(1H-1,2,4-triazol-1-yl)-2-butanol], in the test with Candida albicans (sc, s.c.), the ED50 stood at 0.5 mg/kg. In addition, the zone of inhibition at 1000 µg/mL in test [1] (setting [2]) amounted to 30 mm.
As to `OC(CSCCSCCn1ccnc1)(Cn1cncn1)c1ccc(F)cc1F` (stereo not shown) [Compound 7], the zone of inhibition at 1000 µg/mL in test [1] (setting [3]) was 18 mm.
For `Cc1oc(=O)oc1CS[C@H](C)[C@](O)(Cn1cncn1)c1ccc(F)cc1F` (racemic) [Compound 56, (2RS,3RS)-2-(2,4-difluorophenyl)-3-(5-methyl-2-oxo-1,3-dioxol-4-yl)methylthio-1-(1H-1,2,4-triazol-1-yl)-2-butanol], the ED50 in the test with Candida albicans (sc, s.c.) worked out at 2 mg/kg. The zone of inhibition at 1000 µg/mL in test [1] (setting [2]) is 30 mm.
`Cn1ccnc1CSCCSCC(O)(Cn1cncn1)c1ccc(F)cc1F` (stereo not shown) [Compound 17]: in test [1] (setting [2]), the zone of inhibition at 1000 µg/mL came to 25 mm.
In the case of `C[C@@H](SCc1nccn1CC(F)(F)F)[C@](O)(Cn1cncn1)c1ccc(F)cc1F` (relative stereo) [Compound 49], the ED50 with Candida albicans (sc, s.c.) was 1 mg/kg. Besides, the zone of inhibition at 1000 µg/mL in test [1] (setting [2]) turned out to be 25 mm.
In the case of `C[C@@H](SCc1cn(C)cn1)[C@](O)(Cn1cncn1)c1ccc(F)cc1F` (relative stereo) [Compound 28], the ED50 with Candida albicans (sc, s.c.) was 0.65 mg/kg. For the same molecule, the zone of inhibition at 1000 µg/mL in test [1] (setting [2]) turned out to be 40 mm.
The matching figures for `C[C@@H](SCc1nccn1C(CF)CF)[C@](O)(Cn1cncn1)c1ccc(F)cc1F` (relative stereo) [Compound 59]: 1.4 mg/kg and 30 mm.
As to `C[C@@H](S)[C@](O)(Cn1cncn1)c1ccc(F)cc1F` [Compound 43, (2R,3R)-2-(2,4-difluorophenyl)-3-mercapto-1-(1H-1,2,4-triazol-1-yl)-2-butanol], the ED50 in the test on Candida albicans (po, p.o.) worked out at 0.18 mg/kg; in the test on Candida albicans (sc, s.c.), 0.18 mg/kg. Besides, in test [1] (setting [2]), the zone of inhibition at 1000 µg/mL was 40 mm.
As for `OC(CSCCc1ccncc1)(Cn1cncn1)c1ccc(F)cc1F` (stereo not shown) [Compound 8], the zone of inhibition at 1000 µg/mL in test [1] (setting [3]) was 25 mm.
Turning to `C[C@@H](SCc1ncnn1C)[C@](O)(Cn1cncn1)c1ccc(F)cc1F` (relative stereo) [Compound 31], the ED50 in the test on Candida albicans (sc, s.c.) turned out to be 0.71 mg/kg. For the same molecule, the zone of inhibition at 1000 µg/mL in test [1] (setting [2]) came to 40 mm.
With `Cc1csc(CS[C@H](C)[C@](O)(Cn2cncn2)c2ccc(F)cc2F)n1` (relative stereo) [Compound 37], in the test on Candida albicans (sc, s.c.), the 50% effective dose (ED50) was found to be 1.4 mg/kg. Also, the zone of inhibition at 1000 µg/mL in test [1] (setting [2]) was determined as 45 mm.
Regarding `C[C@@H](SCc1nccn1C)[C@](O)(Cn1cncn1)c1ccc(F)cc1F` (relative stereo) [16(hydrochloride)], the ED50 with Candida albicans (po, p.o.) worked out at 0.71 mg/kg.
Turning to `C[C@@H](SCc1cncn1C)[C@](O)(Cn1cncn1)c1ccc(F)cc1F` (racemic) [Compound 29, (2RS,3RS)-2-(2,4-difluorophenyl)-3-(1-methylimidazol-5-yl)methylthio-1-(1H-1,2,4-triazol-1-yl)-2-butanol], the ED50 with Candida albicans (sc, s.c.) worked out at 0.71 mg/kg. In test [1] (setting [2]), the zone of inhibition at 1000 µg/mL was determined as 38 mm.
As to `CC(SCC(O)(Cn1cncn1)c1ccc(F)cc1F)c1ccncc1` (stereo not shown) [Compound 9], the zone of inhibition at 1000 µg/mL in test [1] (setting [3]) stood at 21 mm.
In the case of `C[C@@H](SCc1ncn(C)n1)[C@](O)(Cn1cncn1)c1ccc(F)cc1F` (relative stereo) [Compound 32], the ED50 in the test on Candida albicans (sc, s.c.) turned out to be 3.2 mg/kg. The zone of inhibition at 1000 µg/mL in test [1] (setting [2]) stood at 40 mm.
In the same order, the values of `C[C@@H](SCCn1cncn1)[C@](O)(Cn1cncn1)c1ccc(F)cc1F` (relative stereo) [13(hydrochloride)] are 10 mg/kg and 25 mm.
Turning to `C[C@H]([C@](O)(Cn1cncn1)c1ccc(F)cc1F)S(=O)(=O)CCn1cncn1` (relative stereo) [Compound 14], the zone of inhibition at 1000 µg/mL in test [1] (setting [3]) was 22 mm.
Turning to `C[C@@H](SCc1nncn1C)[C@](O)(Cn1cncn1)c1ccc(F)cc1F` (relative stereo) [Compound 33], the 50% effective dose (ED50) with Candida albicans (sc, s.c.) is 0.45 mg/kg. In addition, the zone of inhibition at 1000 µg/mL in test [1] (setting [2]) worked out at 20 mm.
Turning to `C[C@@H](SCCSCCn1ccnc1)[C@](O)(Cn1cncn1)c1ccc(F)cc1F` (relative stereo) [Compound 23], in test [1] (setting [2]), the zone of inhibition at 1000 µg/mL amounted to 25 mm.
Take `Cc1nc(CS[C@H](C)[C@](O)(Cn2cncn2)c2ccc(F)cc2F)cs1` (relative stereo) [Compound 52]: the ED50 with Candida albicans (sc, s.c.) came to 2 mg/kg. Further, in test [1] (setting [2]), the zone of inhibition at 1000 µg/mL was 35 mm.
As to `C[C@@H](SCc1nccn1C1CC1)[C@](O)(Cn1cncn1)c1ccc(F)cc1F` [Compound 110], the 50% effective dose (ED50) came to 0.35 mg/kg in the test with Candida albicans (po, p.o.) and 0.35 mg/kg with Candida albicans (sc, s.c.). The zone of inhibition at 1000 µg/mL in test [1] (setting [2]) turned out to be 40 mm.
For `C[C@@H](SCc1nccn1CC(F)(F)C(F)F)[C@](O)(Cn1cncn1)c1ccc(F)cc1F` (relative stereo) [Compound 30], in test [1] (setting [2]), the zone of inhibition at 1000 µg/mL turned out to be 40 mm.
Still for that read-out and setting: the figure for `C[C@@H](SCCSCCn1cncn1)[C@](O)(Cn1cncn1)c1ccc(F)cc1F` (relative stereo) [Compound 22] is 25 mm.
Consider `CC(=O)S[C@H](C)[C@](O)(Cn1cncn1)c1ccc(F)cc1F` [Compound 45, (2R,3R)-3-acetylthio-2-(2,4-difluorophenyl)-1-(1H-1,2,4-triazol-1-yl)-2-butanol], for which the ED50 in the test on Candida albicans (po, p.o.) amounted to 0.18 mg/kg; in the test on Candida albicans (sc, s.c.), 0.16 mg/kg. Moreover, in test [1] (setting [2]), the zone of inhibition at 1000 µg/mL is 40 mm.
`CCn1ccnc1CS[C@H](C)[C@](O)(Cn1cncn1)c1ccc(F)cc1F` [Compound 101]: the zone of inhibition at 1000 µg/mL in test [1] (setting [2]) came to 38 mm.
`OC(CSCCn1cncn1)(Cn1cncn1)c1ccc(F)cc1F` (stereo not shown) [Compound 2]: the ED50 in the test with Candida albicans (sc, s.c.) was 19.3 mg/kg. Moreover, the zone of inhibition at 1000 µg/mL in test [1] (setting [3]) worked out at 18 mm; in test [1] (setting [2]), 17 mm.
Regarding `CC(SCC(O)(Cn1cncn1)c1ccc(F)cc1F)c1ccncc1` (stereo not shown) [Compound 10], in the test with Candida albicans (sc, s.c.), the ED50 came out at 35.4 mg/kg. The molecule also returned an Inhibition zone diameter in test [1] (setting [3]) of 21 mm.
On to `CC(n1cncn1)C(O)(CS)c1ccc(F)cc1F` (single isomer, unassigned) [Compound 115, 2-(2,4-difluorophenyl)-1-mercapto-3-[(1H)-1,2,4-triazol-1-yl]-2-butanol], for which the ED50 with Candida albicans (sc, s.c.) was more than 4 mg/kg. Besides, the zone of inhibition at 1000 µg/mL in test [1] (setting [2]) was 33 mm.
In the same order, the values of `C[C@@H](SCc1nccn1CCF)[C@](O)(Cn1cncn1)c1ccc(F)cc1F` (relative stereo) [Compound 48] are 0.77 mg/kg and 23 mm.
As to `OC(CSCCSc1ccncc1)(Cn1cncn1)c1ccc(F)cc1F` (stereo not shown) [Compound 24], the zone of inhibition at 1000 µg/mL in test [1] (setting [2]) came to 25 mm.
On to `OC(CSCCSCc1ccncc1)(Cn1cncn1)c1ccc(F)cc1F` (stereo not shown) [Compound 19], for which, in test [1] (setting [2]), the zone of inhibition at 1000 µg/mL worked out at 30 mm.
On the same count and under the same terms, the figure for `Cn1nnnc1SCCSCC(O)(Cn1cncn1)c1ccc(F)cc1F` (stereo not shown) [Compound 20] is 25 mm; for `Cn1ccnc1SCCSCC(O)(Cn1cncn1)c1ccc(F)cc1F` (stereo not shown) [Compound 18] it is 25 mm.
For `C[C@@H](SCCn1cncn1)[C@](O)(Cn1cncn1)c1ccc(F)cc1F` (relative stereo) [Compound 13], the zone of inhibition at 1000 µg/mL in test [1] (setting [3]) is 34 mm.
Molecule `CC(SCC(O)(Cn1cncn1)c1ccc(F)cc1F)c1ccncc1` (stereo not shown) [Compound 11] yielded an Inhibition zone diameter in test [1] (setting [3]) of 24 mm.
Turning to `C[C@@H](SCc1nccn1CC(F)(F)C(F)F)[C@](O)(Cn1cncn1)c1ccc(F)cc1F` (relative stereo) [30(hydrochloride)], in the test with Candida albicans (sc, s.c.), the ED50 was 0.88 mg/kg.
For the molecule `C[C@@H](SCc1cn2ccccc2n1)[C@](O)(Cn1cncn1)c1ccc(F)cc1F` (relative stereo) [Compound 27], the zone of inhibition at 1000 µg/mL in test [1] (setting [2]) stood at 45 mm.
Still for that read-out and setting: the figure for `C[C@@H](SCc1nncn1C)[C@](O)(Cn1cncn1)c1ccc(F)cc1F` [Compound 95] is 28 mm; for `CC(C)n1ccnc1CS[C@H](C)[C@](O)(Cn1cncn1)c1ccc(F)cc1F` [Compound 102] it is 35 mm.
Turning to `C[C@@H](SCc1cn2ccccc2n1)[C@](O)(Cn1cncn1)c1ccc(F)cc1F` (relative stereo) [27(hydrochloride)], the ED50 with Candida albicans (sc, s.c.) worked out at 3.2 mg/kg.
Take `CC(=O)S[C@@H](C)[C@](O)(Cn1cncn1)c1ccc(F)cc1F` (relative stereo) [Compound 61]: the zone of inhibition at 1000 µg/mL in test [1] (setting [2]) amounted to 30 mm.
On to `C[C@@H](SCc1nccs1)[C@](O)(Cn1cncn1)c1ccc(F)cc1F` (relative stereo) [38(hydrochloride)], for which the ED50 in the test with Candida albicans (sc, s.c.) stood at 3.2 mg/kg.
For the molecule `OC(CSCCSCCn1cncn1)(Cn1cncn1)c1ccc(F)cc1F` (stereo not shown) [Compound 21], the zone of inhibition at 1000 µg/mL in test [1] (setting [2]) worked out at 20 mm.
On to `C[C@@H](SCc1nccs1)[C@](O)(Cn1cncn1)c1ccc(F)cc1F` (relative stereo) [Compound 38], for which, in test [1] (setting [2]), the zone of inhibition at 1000 µg/mL amounted to 47 mm.

One may read the ED50 as the midpoint of the dose-response relation.
